Patent US20090137572A1, “2-substituted-4-heteroaryl-pyrimidines useful for the treatment of proliferative disorders” (priority 2004, published 2009)

Columns and labels:
Format in all cases: biochemical
CDK7/cyclin H = CDK7/cyclin H (Homo sapiens, UniProt P50613); test: CDK 7 assay (CTD peptide substrate); conditions: read-out: Kinase Inhibition pIC50 CDK7-cyclin H (converted)
Experimental: (§1) Kinase assays. The compounds of the invention above were investigated for their ability to inhibit the enzymatic activity of various protein kinases (Table 2). This was achieved by measurement of incorporation of radioactive phosphate from ATP into appropriate polypeptide substrates. Recombinant protein kinases and kinase complexes were produced or obtained commercially. Assays were performed using 96-well plates and appropriate assay buffers (typically 25 mM β-glycerophosphate, 20 mM MOPS, 5 mM EGTA, 1 mM DTT, 1 mM […], pH 7.4), into which were added 2-4 μg of active enzyme with appropriate substrates. The reactions were initiated by addition of Mg/ATP mix (15 mM MgCl2+100 μM ATP with 30-50 kBq per well of [γ-^32P]-ATP) and mixtures incubated as required at 30° C. Reactions were stopped on ice, followed by filtration through p81 filterplates or GF/C filterplates (Whatman Polyfiltronics, Kent, UK). After washing 3 times with 75 mM aq orthophosphoric acid, plates were dried, scintillant added and incorporated radioactivity measured in a scintillation counter (TopCount, Packard Instruments, Pangbourne, Berks, UK). Compounds for kinase assay were made up as 10 mM stocks in DMSO and diluted into 10% DMSO in assay buffer.
(§2) CDK 7 and 9 assays. CTD peptide substrate (biotinyl-Abx-(Tyr-Ser-Pro-Thr-Ser-Pro-Ser)4-NH2; 1-2 mg/mL) and recombinant human CDK7/cyclin H, CDK9/cyclin T1, or CDK9/cyclin K (0.5-2 μg) were incubated for 45 min at 30° C. in the presence of varying amounts of test compound in 20 mM MOPS pH 7.2, 25 mM β-glycerophosphate, 5 mM EGTA, 1 mM DTT, 1 mM sodium vanadate, 15 mM MgCl2, and 100 μM ATP (containing a trace amount of ^32PγATP) in a total volume of 25 μL in a 96-well microtiter plate. The reaction was stopped by placing the plate on ice for 2 min. Avidin (50 μg) was added to each well, and the plate was incubated at room temp for 30 min. The samples were transferred to a 96-well P81 filter plate, and washed (4×200 μL per well) with 75 mM phosphoric acid. Microscint 40 scintillation liquid (50 μL) was added to each well, and the amount of ^32P incorporation for each sample was measured using a Packard Topcount microplate scintillation counter.

Aurora A kinase = target: T1, Aurora A kinase (Homo sapiens, UniProt O14965); test: Aurora-A (human) kinase assay (Kemptide substrate); conditions: pIC50 is -log(IC50, M); 15 μM ATP; read-out: Kinase Inhibition pIC50 Aurora A kinase (converted)
T1 construct: purchased
T1 sequence (O14965 1-403): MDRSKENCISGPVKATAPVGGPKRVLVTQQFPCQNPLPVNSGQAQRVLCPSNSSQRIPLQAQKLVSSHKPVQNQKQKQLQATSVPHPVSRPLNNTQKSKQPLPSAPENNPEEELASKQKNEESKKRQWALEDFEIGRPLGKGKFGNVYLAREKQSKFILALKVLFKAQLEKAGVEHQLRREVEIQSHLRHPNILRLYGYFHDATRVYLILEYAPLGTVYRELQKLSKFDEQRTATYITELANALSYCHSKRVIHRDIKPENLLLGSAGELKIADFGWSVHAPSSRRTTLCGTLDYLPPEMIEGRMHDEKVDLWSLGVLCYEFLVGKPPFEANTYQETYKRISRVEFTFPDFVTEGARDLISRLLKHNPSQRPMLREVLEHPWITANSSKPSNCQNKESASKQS
Experimental: Aurora-A (human) kinase assay. This was achieved by measurement of incorporation of radioactive phosphate from ATP into Kemptide substrate (LRRASLG), upon phosphorylation by commercially obtained aurora-A kinase. Assays were performed using 96-well plates and appropriate assay buffers (8 mM MOPS, 0.2 mM EDTA, pH 7.0), into which were added 5-10 ng of active enzyme with 200 μM substrate (Kemptide). The reactions were initiated by addition of Mg/ATP mix (10 mM MgAcetate+15 μM ATP with 30-50 kBq per well of [γ-^33P]-ATP) and mixtures incubated for 40 min at room temperature. Reactions were stopped by addition of 3% phosphoric acid, followed by filtration through p81 filterplates (Whatman Polyfiltronics, Kent, UK). After washing 5 times with 75 mM aq orthophosphoric acid and once in methanol, plates were dried, scintillant added and incorporated radioactivity measured in a scintillation counter (TopCount, Packard Instruments, Pangbourne, Berks, UK). Compounds for kinase assay were made up as 10 mM stocks in DMSO and diluted into 10% DMSO in assay buffer.

CDK9/cyclin T1 = CDK9/cyclin T1 (Homo sapiens, UniProt P50750); test: CDK 9 assay (CTD peptide substrate); conditions: read-out: Kinase Inhibition pIC50 CDK9-cyclin T1 (converted)
CDK9/cyclin T1, sequence (P50750 whole entry): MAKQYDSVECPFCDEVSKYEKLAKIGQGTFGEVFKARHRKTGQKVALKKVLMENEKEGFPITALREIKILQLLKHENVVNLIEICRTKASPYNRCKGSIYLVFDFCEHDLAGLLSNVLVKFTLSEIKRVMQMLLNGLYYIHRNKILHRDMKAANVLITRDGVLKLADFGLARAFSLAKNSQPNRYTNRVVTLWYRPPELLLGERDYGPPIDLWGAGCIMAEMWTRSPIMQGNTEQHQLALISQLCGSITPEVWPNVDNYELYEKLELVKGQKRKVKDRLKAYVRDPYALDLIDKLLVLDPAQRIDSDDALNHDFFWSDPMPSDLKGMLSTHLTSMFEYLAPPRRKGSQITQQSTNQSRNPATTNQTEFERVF
CDK9/cyclin T1, sequence (O60563 whole entry partner): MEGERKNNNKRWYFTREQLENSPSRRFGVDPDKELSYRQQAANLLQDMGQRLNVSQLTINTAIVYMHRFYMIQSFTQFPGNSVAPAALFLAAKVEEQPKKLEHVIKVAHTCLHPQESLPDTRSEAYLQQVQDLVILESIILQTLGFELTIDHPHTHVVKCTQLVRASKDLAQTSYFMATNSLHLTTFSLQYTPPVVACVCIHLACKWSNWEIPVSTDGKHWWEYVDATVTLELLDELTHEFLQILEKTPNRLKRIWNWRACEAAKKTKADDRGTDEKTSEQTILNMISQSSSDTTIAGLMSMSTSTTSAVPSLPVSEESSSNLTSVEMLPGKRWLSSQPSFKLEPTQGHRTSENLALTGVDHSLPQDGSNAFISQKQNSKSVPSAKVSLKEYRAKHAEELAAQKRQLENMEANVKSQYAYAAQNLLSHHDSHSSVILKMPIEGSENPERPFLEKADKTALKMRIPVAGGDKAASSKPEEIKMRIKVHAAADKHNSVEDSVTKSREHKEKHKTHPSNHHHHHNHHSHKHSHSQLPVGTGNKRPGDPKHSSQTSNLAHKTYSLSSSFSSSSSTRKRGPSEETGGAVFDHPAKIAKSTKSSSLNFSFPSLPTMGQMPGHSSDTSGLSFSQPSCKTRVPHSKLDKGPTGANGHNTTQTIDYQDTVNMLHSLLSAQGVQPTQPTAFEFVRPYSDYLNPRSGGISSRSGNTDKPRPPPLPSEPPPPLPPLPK
Experimental: as §1, §2

CDK2-cycline E = CDK2-cycline E (Homo sapiens, UniProt P24941); test: Kinase assay (radioactive phosphate incorporation), CDK2-cyclin E; conditions: read-out: Kinase Inhibition pIC50 CDK2-cycline E (converted)
Experimental: as §1

CDK7/cyclin H, sequence (P50613 whole entry): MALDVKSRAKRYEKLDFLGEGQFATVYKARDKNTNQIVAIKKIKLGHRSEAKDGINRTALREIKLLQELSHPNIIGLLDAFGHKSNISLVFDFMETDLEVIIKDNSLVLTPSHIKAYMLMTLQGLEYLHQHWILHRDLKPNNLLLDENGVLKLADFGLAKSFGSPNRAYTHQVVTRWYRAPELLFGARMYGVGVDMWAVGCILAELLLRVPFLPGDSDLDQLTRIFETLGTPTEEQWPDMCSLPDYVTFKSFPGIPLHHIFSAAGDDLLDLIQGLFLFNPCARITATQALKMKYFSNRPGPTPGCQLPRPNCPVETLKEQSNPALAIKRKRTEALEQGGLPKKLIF
CDK7/cyclin H, sequence (P51946 whole entry partner): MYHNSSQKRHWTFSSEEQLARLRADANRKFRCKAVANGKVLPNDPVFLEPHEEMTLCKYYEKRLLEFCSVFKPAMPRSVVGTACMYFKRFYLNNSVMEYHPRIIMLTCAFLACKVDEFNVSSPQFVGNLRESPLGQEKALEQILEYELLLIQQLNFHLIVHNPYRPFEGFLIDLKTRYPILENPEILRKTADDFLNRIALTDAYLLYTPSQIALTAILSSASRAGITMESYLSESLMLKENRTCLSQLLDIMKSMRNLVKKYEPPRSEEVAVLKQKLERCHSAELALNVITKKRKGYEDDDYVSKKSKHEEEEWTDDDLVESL

| Structure (SMILES) | IC50 (CDK7/cyclin H) | IC50 (Aurora A kinase) | IC50 (CDK9/cyclin T1) | IC50 (CDK2-cycline E) |
| --- | --- | --- | --- | --- |
| CNc1nc(C)c(-c2ccnc(Nc3cccc(S(=O)(=O)Nc4cccc(OC)c4)c3)n2)s1 [Compound 32, N-(3-Methoxy-phenyl)-3-[4-(4-methyl-2-methylamino-thiazol-5-yl)-pyrimidin-2-ylamino]-benzenesulfonamide] | 5010 nM | 12.6 nM | 2510 nM | – |
| CCNc1nc(C)c(-c2ccnc(Nc3cccc(Br)c3)n2)s1 [Compound 50, (3-Bromo-phenyl)-[4-(2-ethylamino-4-methyl-thiazol-5-yl)-pyrimidin-2-yl]-amine] | – | 20 nM | 200 nM | – |
| Cc1nc(C)c(-c2ccnc(Nc3ccc(N4CCN(Cc5ccccc5)CC4)cc3)n2)s1 [Compound 114, [4-(4-Benzyl-piperazin-1-yl)-phenyl]-[4-(2,4-dimethyl-thiazol-5-yl)-pyrimidin-2-yl]-amine] | 126 nM | 316 nM | 1580 nM | 1260 nM |
| CCN(C)c1nc(C)c(-c2ccnc(Nc3ccc(N4CCOCC4)cc3)n2)s1 [Compound 120, {4-[2-(Ethyl-methyl-amino)-4-methyl-thiazol-5-yl]-pyrimidin-2-yl}-(4-morpholin-4-yl-phenyl)-amine] | 3160 nM | 31.6 nM | 2000 nM | 794 nM |
| CC(=O)N1CCN(c2ccc(Nc3nccc(-c4sc(N(C)Cc5ccccc5)nc4C)n3)cc2)CC1 [Compound 122, 1-[4-(4-{4-[2-(Benzyl-methyl-amino)-4-methyl-thiazol-5-yl]-pyrimidin-2-ylamino}-phenyl)-piperazin-1-yl]-ethanone] | 1580 nM | 200 nM | 1260 nM | 2000 nM |
| COc1cc(Nc2nccc(-c3sc(C)nc3C)n2)ccc1N1CCOCC1 [Compound 173, [4-(2,4-Dimethyl-thiazol-5-yl)-pyrimidin-2-yl]-(3-methoxy-4-morpholin-4-yl-phenyl)-amine] | 3160 nM | 39.8 nM | 3160 nM | 794 nM |
| COc1cc(Nc2nccc(-c3sc(N)nc3C)n2)ccc1N1CCOCC1 [Compound 182, [4-(2-Amino-4-methyl-thiazol-5-yl)-pyrimidin-2-yl]-(3-methoxy-4-morpholin-4-yl-phenyl)-amine] | 2510 nM | 39.8 nM | 1000 nM | 794 nM |
| COc1ccc(Nc2nccc(-c3sc(N)nc3C)n2)cc1C [Compound 185, [4-(2-Amino-4-methyl-thiazol-5-yl)-pyrimidin-2-yl]-(4-methoxy-3-methyl-phenyl)-amine] | – | 39.8 nM | – | 251 nM |
| CCNc1nc(C)c(-c2ccnc(Nc3ccc(OC)c(C)c3)n2)s1 [Compound 187, [4-(2-Ethylamino-4-methyl-thiazol-5-yl)-pyrimidin-2-yl]-(4-methoxy-3-methyl-phenyl)-amine] | – | 100 nM | – | 794 nM |
| Cc1nc(CO)sc1-c1ccnc(Nc2ccc(N3CCOCC3)cc2)n1 [Compound 188, {4-Methyl-5-[2-(4-morpholin-4-yl-phenylamino)-pyrimidin-4-yl]-thiazol-2-yl}-methanol] | – | 79.4 nM | 3980 nM | 1580 nM |
| CCOC(=O)N1CCN(c2ccc(Nc3nccc(-c4sc(C)nc4C)n3)cc2)CC1 [Compound 189, 4-{4-[4-(2,4-Dimethyl-thiazol-5-yl)-pyrimidin-2-ylamino]-phenyl}-piperazine-1-carboxylic acid ethyl ester] | – | 100 nM | 2000 nM | 2000 nM |
| Cc1nc(C)c(-c2ccnc(Nc3ccc(N4CCN(CC(=O)NC(C)C)CC4)cc3)n2)s1 [Compound 190, 2-(4-{4-[4-(2,4-Dimethyl-thiazol-5-yl)-pyrimidin-2-ylamino]-phenyl}-piperazin-1-yl)-N-isopropyl-acetamide] | 7940 nM | 63.1 nM | 2510 nM | 1000 nM |
| Cc1nc(C)c(-c2ccnc(Nc3ccc(N4CCCCC4)cc3)n2)s1 [Compound 193, [4-(2,4-Dimethyl-thiazol-5-yl)-pyrimidin-2-yl]-(4-piperidin-1-yl-phenyl)-amine] | – | 200 nM | 3980 nM | – |

Second part, the compound after the results:

| IC50 (CDK7/cyclin H) | IC50 (Aurora A kinase) | IC50 (CDK9/cyclin T1) | IC50 (CDK2-cycline E) | Structure (SMILES) |
| --- | --- | --- | --- | --- |
| – | 79.4 nM | – | 794 nM | CCNc1nc(C)c(-c2ccnc(Nc3ccc(N4CCCCC4)cc3)n2)s1 [Compound 194, [4-(2-Ethylamino-4-methyl-thiazol-5-yl)-pyrimidin-2-yl]-(4-piperidin-1-yl-phenyl)-amine] |
| 1580 nM | 39.8 nM | 398 nM | 794 nM | Cc1nc(N)sc1-c1ccnc(Nc2ccc(N3CCCCC3)cc2)n1 [Compound 195, [4-(2-Amino-4-methyl-thiazol-5-yl)-pyrimidin-2-yl]-(4-piperidin-1-yl-phenyl)-amine] |
| – | 200 nM | – | 631 nM | CCNc1nc(C)c(-c2ccnc(Nc3ccc(N4CCN(C)CC4)cc3)n2)s1 [Compound 196, [4-(2-Ethylamino-4-methyl-thiazol-5-yl)-pyrimidin-2-yl]-[4-(4-methyl-piperazin-1-yl)-phenyl]-amine] |
| 7940 nM | 100 nM | 3160 nM | 2510 nM | Cc1nc(CO)sc1-c1ccnc(Nc2ccc(N3CCCCC3)cc2)n1 [Compound 197, {4-Methyl-5-[2-(4-piperidin-1-yl-phenylamino)-pyrimidin-4-yl]-thiazol-2-yl}-methanol] |
| – | 39.8 nM | – | 2000 nM | COc1cc(Nc2nccc(-c3sc(CO)nc3C)n2)ccc1N1CCOCC1 [Compound 200, {5-[2-(3-Methoxy-4-morpholin-4-yl-phenylamino)-pyrimidin-4-yl]-4-methyl-thiazol-2-yl}-methanol] |
| 6310 nM | 158 nM | 2000 nM | 2510 nM | Cc1nc(N)sc1-c1ccnc(Nc2ccc(N3CCOCC3)c(C(N)=O)c2)n1 [Compound 211, 5-[4-(2-Amino-4-methyl-thiazol-5-yl)-pyrimidin-2-ylamino]-2-morpholin-4-yl-benzamide] |
| – | 63.1 nM | 1260 nM | 1000 nM | CCNc1nc(C)c(-c2ccnc(Nc3ccc(N4CCOCC4)c(C(N)=O)c3)n2)s1 [Compound 212, 5-[4-(2-Ethylamino-4-methyl-thiazol-5-yl)-pyrimidin-2-ylamino]-2-morpholin-4-yl-benzamide] |
| – | 39.8 nM | 2510 nM | 1580 nM | Cc1nc(C)c(-c2ccnc(Nc3ccc(N4CCN(C(=O)C5CC5)CC4)cc3)n2)s1 [Compound 213, Cyclopropyl-(4-{4-[4-(2,4-dimethyl-thiazol-5-yl)-pyrimidin-2-ylamino]-phenyl}-piperazin-1-yl)-methanone] |
| – | 200 nM | – | 1580 nM | COc1ccc(Nc2nccc(-c3sc(C)nc3C)n2)cc1CN1CCOCC1 [Compound 215, [4-(2,4-Dimethyl-thiazol-5-yl)-pyrimidin-2-yl]-(4-methoxy-3-morpholin-4-ylmethyl-phenyl)-amine] |
